According to paper PMC11838007, “Contribution of telacebec to novel drug regimens in a murine tuberculosis model” (Antimicrobial Agents and Chemotherapy, 2024):
Converted amounts (≈) assume the structure as drawn.

Columns and labels:
Rv0678_2 mutant = assay type: cell-based, Mycobacterium tuberculosis
Rv0678_J4 mutant = assay type: cell-based, Mycobacterium tuberculosis

CCc1nc2ccc(Cl)cn2c1C(=O)NCc1ccc(N2CCC(c3ccc(OC(F)(F)F)cc3)CC2)cc1 [Telacebec, telacebec]
MIC (Rv0678_2 mutant): 8 ng/mL (≈ 0.0144 µM)
MIC (Rv0678_J4 mutant): 4 ng/mL (≈ 0.00718 µM)
